Source: paper PMC5541560, “A biomimetic semisynthesis enables structural elucidation of selaginellin U: a tautomeric cyclic alkynylphenol from Selaginella tamariscina” (Royal Society Open Science, 2017)

Molecular target: T1, β-site amyloid precursor protein cleaving enzyme 1 (BACE1) (Homo sapiens, UniProt P56817)
Assay: FRET peptide substrate assay (Sigma kit CS0010), purified baculovirus-expressed BACE1
Assay type: biochemical

T1 sequence (P56817 46-457): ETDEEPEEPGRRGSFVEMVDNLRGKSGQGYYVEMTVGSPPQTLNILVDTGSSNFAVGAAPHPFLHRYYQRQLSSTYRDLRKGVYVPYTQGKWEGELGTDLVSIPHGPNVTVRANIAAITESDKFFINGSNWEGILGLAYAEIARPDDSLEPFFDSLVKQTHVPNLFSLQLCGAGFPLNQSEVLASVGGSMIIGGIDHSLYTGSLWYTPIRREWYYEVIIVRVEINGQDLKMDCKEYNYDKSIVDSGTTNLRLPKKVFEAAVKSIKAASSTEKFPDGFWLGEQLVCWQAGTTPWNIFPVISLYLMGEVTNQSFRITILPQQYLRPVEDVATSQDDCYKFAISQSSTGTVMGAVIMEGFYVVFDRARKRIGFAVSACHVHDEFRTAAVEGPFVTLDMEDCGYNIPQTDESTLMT

Row | IC50 [µM] | Structure (SMILES)
1 | 51.1 | Cc1ccc(-c2ccc(O)cc2)c(C(=C2C=CC(=O)C=C2)c2ccc(O)cc2)c1C#Cc1ccc(O)cc1 [compound 13, selaginellin B]
2 | 81.2 | O=C1C=CC(=C(c2ccc(O)cc2)c2c(-c3ccc(O)cc3)ccc(CO)c2C#Cc2ccc(O)cc2)C=C1 [compound 3, selaginellin]
3 | 48.9 | O=Cc1ccc(-c2ccc(O)cc2)c(C(=C2C=CC(=O)C=C2)c2ccc(O)cc2)c1C#Cc1ccc(O)cc1 [compound 16, selaginellin O]

Molecular target: T1, β-site amyloid precursor protein cleaving enzyme 1 (BACE1)
Assay: biochemical
Set-up: FRET peptide substrate cleavage assay (Sigma kit CS0010), purified baculovirus-expressed BACE1, inhibition
Procedure: Compounds 1–3 and 7–16 were tested for β-site amyloid precursor protein (APP) cleaving enzyme 1 (BACE1) inhibitory activity. BACE1 inhibitory evaluation was performed with a fluorescence resonance energy transfer (FRET) assay kit supplied by Sigma (Kit CS0010, St. Louis, USA). The kit used purified baculovirus-expressed BACE1 and FRET peptide substrates.

Row | IC50 [µM] | Structure (SMILES)
4 | > 100 | COc1ccc(C(=C2C=CC(=O)C=C2)c2c(-c3ccc(O)cc3)ccc(CO)c2C#Cc2ccc(O)cc2)cc1 [compound 15, selaginellin M]
5 | > 100 | Cc1ccc(-c2ccc(O)cc2)c(C(=C2C=CC(=O)C=C2)c2ccccc2)c1C#Cc1ccc(O)cc1 [compound 12, selaginellin A]

More lines, now with the values behind:

Row | Structure (SMILES) | IC50 [µM]
6 | OCc1ccc2c(c1C#Cc1ccc(O)cc1)C(c1ccc(O)cc1)(c1ccc(O)cc1)c1cc(O)ccc1-2 [compound 7, selaginpulvilin A] | > 100
7 | O=C1OC(c2ccc(O)cc2)(c2ccc(O)cc2)c2c1cccc2-c1ccc(O)cc1 [compound 1, selaginellin T] | > 100
8 | O=C1C=CC(=C(c2ccc(O)cc2)c2c(-c3ccc(O)cc3)ccc3c(=O)oc(-c4ccc(O)cc4)cc23)C=C1 [compound 2, selaginellin U] | > 100
